The test system of assay [1] is patient-derived AML cells. In words: Patient-derived xenografts (PDX) in NSGS mice. The assay is classed as in vivo.
Assay [2] deals with Cord Blood CD34+. In words: Cell proliferation MTS assay. The assay is classed as cell-based, human. As for the experimental part:
(§1) AML cell lines (5×10^3 cells/well) were seeded in 96-well plates and grown for 24 to 96 h in serum (10%)-containing medium in the presence or absence of inhibitors at the indicated concentrations. Proliferation was analyzed by means of an MTS assay using the CellTiter 96 Aqueous One Solution Cell Proliferation Assay (Promega, Madison, Wis., USA), according to the manufacturer's instructions. Data are mean with standard deviation from three independent experiments in technical triplicates. For the screening of 160 compounds from the UC library, the cell metabolic activity was assessed at 24 hours of treatment of MOLM-13 cells. Top 15 candidates were re-screened at 2 μM, and the cell metabolic activity was determined at 24 hours of treatment. In certain experiments, cell viability was determined by staining the cells with trypan blue at a 1/2 dilution and counting total number of viable cells upon treatment with UC-764864 or DMSO control. The cells were counted daily for 4 days using an automated cell counter (Countess II FL from Life Technologies). […] UC-764864 was added at the indicated concentrations and cells were incubated with drug for 3 days, at which point cell viability was measured by MTS according to manufacturer's instructions.
(In general: Formazan colour is commonly taken as a measure of viable cells.)

Assay [3] concerns MOLM-13 cells. Kind of assay: MTS assay of MOLM-13 cells overexpressing UBE2N wild type or UBE2N C87S. The assay is classed as cell-based, human. An excerpt: For knockdown studies, UBE2N shRNA template oligonucleotides from the TRC shRNA library cloned into the pLKO.1 TRC cloning vector (Addgene: #10878) and pLKO.1 TRC cloning vector (Table 3). The puromycin gene in pLKO.1 was replaced with GFP. pLKO.1 TRC control was used as non-silencing control (Addgene: #10879). For production of lentiviral particles, lentiviral shRNA expression constructs were transfected together with packaging vectors into 293T producer cells using TransIT transfection reagent (Mirus, MIR 2306), supernatants were harvested after 48 and 72 hours, and concentrated by ultracentrifugation. […] UBE2N knockdown efficiency was determined by quantitative real time PCR (qRT-PCR) and western blot and quantified as described elsewhere. […] Levels of overexpression of UBE2N were determined by western blot.
AML cell lines (5×10^3 cells/well) were seeded in 96-well plates and grown for 24 to 96 h in serum (10%)-containing medium in the presence or absence of inhibitors at the indicated concentrations. Proliferation was analyzed by means of an MTS assay using the CellTiter 96 Aqueous One Solution Cell Proliferation Assay (Promega, Madison, Wis., USA), according to the manufacturer's instructions. […] For the screening of 160 compounds from the UC library, the cell metabolic activity was assessed at 24 hours of treatment of MOLM-13 cells. […]

Assay [4] concerns MOLM-13 cells. In words: Trypan blue viability and Caspase 3 cleavage immunoblot. The assay is classed as cell-based, human. The method, then:
AML cell lines (5×10^3 cells/well) were seeded in 96-well plates and grown for 24 to 96 h in serum (10%)-containing medium in the presence or absence of inhibitors at the indicated concentrations. Proliferation was analyzed by means of an MTS assay using the CellTiter 96 Aqueous One Solution Cell Proliferation Assay (Promega, Madison, Wis., USA), according to the manufacturer's instructions. Data are mean with standard deviation from three independent experiments in technical triplicates. For the screening of 160 compounds from the UC library, the cell metabolic activity was assessed at 24 hours of treatment of MOLM-13 cells. Top 15 candidates were re-screened at 2 μM, and the cell metabolic activity was determined at 24 hours of treatment. In certain experiments, cell viability was determined by staining the cells with trypan blue at a 1/2 dilution and counting total number of viable cells upon treatment with UC-764864 or DMSO control. The cells were counted daily for 4 days using an automated cell counter (Countess II FL from Life Technologies). […] UC-764864 was added at the indicated concentrations and cells were incubated with drug for 3 days, at which point cell viability was measured by MTS according to manufacturer's instructions. […]
In general terms: Immunoblotting shows a protein as a band on a membrane.

Assay [5] relates to AML cell lines. Kind of assay: Cell proliferation MTS assay, panel of AML cell lines. The format is cell-based. Conditions: Homo sapiens. The method, then:
as §1

The values that follow come from US20220267753A1, “RATIONAL THERAPEUTIC TARGETING OF ONCOGENIC IMMUNE SIGNALING STATES IN MYELOID MALIGNANCIES VIA THE UBIQUITIN CONJUGATING ENZYME UBE2N” (CHILDREN'S HOSPITAL MEDICAL CENTER, priority 2019, published 2022).

Like-named read-outs stand apart in the source and are kept apart here.

Regarding `COc1ccc(C(=O)C=CSc2nc3ccc(C)cc3[nH]2)cc1` [UC-764865, 1-(4-methoxyphenyl)-3-[(6-methyl-1H-benzimidazol-2-yl)sulfanyl]prop-2-en-1-one], the “leukemic burden of mice xenografted with UBE2N-resistant sample AML-JM60” value in assay [1] (25 mg/kg IP) is reported as “did not decrease”. In addition, the “total and ubiquitinated UBE2N in BM cells of mice xenografted with AML-JM40” value in assay [1] (25 mg/kg, vs vehicle, immunoblot) is reported as “reduced”. The “reduction in leukemic burden of UBE2N-sensitive AML cells in the BM” value in assay [1] (JM7, JM40, JM26, 25 mg/kg IP, P=0.008) is given as 30-60%.

As usually defined, the IC50 is the concentration that inhibits the measured activity by half. Take `CCc1ccc(C(=O)C=CSc2nc3ccc(C)cc3[nH]2)cc1` [UC-764864, 1-(4-ethylphenyl)-3-[(6-methyl-1H-benzimidazol-2-yl)sulfanyl]prop-2-en-1-one]: the “proliferation capacity of cord blood CD34+ cells” value in assay [2] is “did not affect”. For the same compound, the IC50 in assay [2] (Homo sapiens, Cord Blood CD34+, MTS, 24 hours) is above 10 µM; in assay [5] (HL-60, NOMO-1, Kasumi-1, MV4-11, MDSL, read-out: IC50, cell lines with intermediate sensitivity), 4.3 to 6.7 µM; in assay [5] (MOLM-14, MOLM-13, THP-1, SKM-1, read-out: IC50, highly sensitive cell lines) it was 0.02 to 2.5 µM. Besides, the “viability of MOLM-13 cells expressing UBE2N(C87S)” value in assay [3] is reported as “did not affect”. For the same compound, the “viability of MOLM-13 cells expressing wild-type UBE2N” value in assay [3] is “significantly suppressed”. In addition, the “apoptosis (trypan blue uptake, cleavage of Caspase 3)” value in assay [4] was “increase in apoptosis”.
